Literature values in patent publication US20170094967A1, “OIL PALM FRUIT APPLICATION METHODS” (Valent BioSciences Corporation, priority 2015, published 2017).

System: oil palms
Conditions: applied before harvest directly to the fruit

SMILES | oil yield of oil palm fruit
NCCO/C=C/[C@H](N)C(=O)O (stereo in doubt) [AVG, [S]-trans-2-amino-4-(2-aminoethoxy)-3-butenoic acid] | increases the oil yield
CC1=CC1 [1-MCP, 1-methylcyclopropene] | increases the oil yield
